Experimental findings from PubChem BioAssay AID1671245 are described below.

Usually pIC50 stands for −log10 of the IC50, conventionally taken in molar units.

The target of this assay is Casein kinase I isoform epsilon (Homo sapiens) (UniProt P49674). As to the kind of experiment: inhibition of CK1 epsilon activity – biochemical, Z'-LYTE, FRET, direct format, dose response (AID 1671245). The note with it: Z'-LYTE FRET kinase activity assay, recombinant CSNK1E.

pIC50: −log10 of the molar value.

Sequence of Casein kinase I isoform epsilon (Homo sapiens) (P49674 whole entry, looked up, canonical isoform): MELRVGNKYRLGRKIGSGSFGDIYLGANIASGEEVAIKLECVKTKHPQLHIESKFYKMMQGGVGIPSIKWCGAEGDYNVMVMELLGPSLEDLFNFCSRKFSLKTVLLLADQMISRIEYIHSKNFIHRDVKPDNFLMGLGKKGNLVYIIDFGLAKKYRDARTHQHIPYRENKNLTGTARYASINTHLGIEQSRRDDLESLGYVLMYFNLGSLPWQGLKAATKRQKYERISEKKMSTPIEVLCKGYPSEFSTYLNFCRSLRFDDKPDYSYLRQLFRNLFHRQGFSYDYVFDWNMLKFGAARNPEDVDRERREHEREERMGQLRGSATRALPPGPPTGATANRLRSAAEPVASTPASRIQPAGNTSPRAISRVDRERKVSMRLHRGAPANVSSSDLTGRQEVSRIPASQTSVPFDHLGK

Regarding `Brc1c(Br)c(Br)c2n[nH]nc2c1Br`, the pIC50 is 5.32.
